Measured values reported in patent publication US12387622B2, “Systems and methods for modeling veins and associated blood vessel components” (The Texas A&M University System, priority 2019, dated 2025).

How the values were obtained:
[1] = test system: thrombi formation within venous valves 50A-50C; experiment: Vein-on-a-chip: anticoagulant-treated blood perfused through TNF-α treated, HUVEC-lined venous valves; platelets and fibrin imaged; assay type: cell-based, human; details: for thrombi at cusps 52 and at the microfluidic channel 44B: DOAC dosage increased to 500 ng/ml; for thrombi at cusps 52 and at the microfluidic channel 44B / fibrin rich clots in cusps 52 / thrombi in the luminal portion of the microfluidic model 40: venous valve 50B treated with TNF-α
Procedure: In this embodiment, to form microfluidic chip 40, microelectronic and semiconductor fabrication techniques were used to develop an SU-8 photoresist-based master mold. Particularly, computational fluid dynamics simulations were carried out to arrive at the open venous valve designs (e.g., venous valves 50A-50C) which contained recirculations as observed in venous valve cusps in vivo. The embodiments of the finalized venous valve designs shown in FIGS. 3-5 were developed using solid modeling computer-aided design (CAD) software (e.g., the SolidWorks™ software package published by Dassault Systemes) and a photomask of the finalized valve designs was used to fabricate the master mold using epoxy-based negative photoresist—SU-8 on a silicon wafer in this embodiment. In this embodiment for forming microchannels 44A-44C, once the master molds were fabricated, the wafers were treated with Silane, and Polydimethylsiloxane (PDMS) having an […] to crosslinker ratio of about 10:1 was poured into the master mold. In this embodiment, once the PDMS was set, the PDMS was striped and bonded to a PDMS coated glass slide to form microchannels 44A-44C, each microchannel 44A-44C having PDMS coated on each side thereof. Additionally, PDMS, being hydrophobic, was treated with plasma and then silanized with (3-aminopropyl) triethoxylsilane (APTES) to make the PDMS hydrophilic. In this embodiment, microchannels 44A-44C were then filled with type-I rat tail collagen of about 200 micrograms per milliliter (ug/ml) and fibronectin of about 50 ug/ml to form an extracellular matrix (ECM) configured to support endothelial cell growth on the walls of each microchannel 44A-44C.
(§1) In this embodiment for forming microchannels 44A-44C, human umbilical vein endothelial cells (HUVECs) were cultured over a layer of the ECM coated on microchannels 44A-44C; however, in other embodiments, human or animal cell lines other than HUVECs may also be used in the formation of microchannels 44A-44C. In this embodiment, HUVECs, a human primary cell line derived from the human umbilical vein, were acquired and seeded on T75 flasks coated with type I rat tail collagen of about 5 micrograms (μg) per 5 cm^2, the HUVECs being seeded at about 50,000 cells per flask. In this embodiment, the endothelial growth media (EGM) (EGM-2 MV, promocell in this embodiment) disposed in the flasks were replaced every two days, and once the flasks were 80% confluent, the HUVECs were detached from the flasks and seeded on microchannels 44A-44C with about 20-30 microliters (μl) of cell suspension having cell density of about 1e7 cells per milliliter (ml). The cell suspension was passed through a cell strainer to remove debris and cell aggregates that were larger than about 40 μm in diameter. In this embodiment, microchannels 44A-44C were then first filled with cell suspension and kept upside down for about 20 minutes to seed the top face of microchannels 44A-44C, and then microchannels 44A-44C were again filled with cell suspension and kept upright for 20 minutes to seed the bottom faces of microchannels 44A-44C.
To induce activation, the vascular lumen coated to microchannels 44A-44C was treated with the tumor necrosis factor (TNF) TNF-α at about 0-200 nanograms per milliliter (ng/ml) in this embodiment. Particularly, the seeded microchannels 44A-44C were perfused with media at about 1 ul/min for about 24 hours. Confluent lumen was formed on the walls of microchannels 44A-44C at the end of 24 hours. Additionally, in this embodiment, different doses TNF-α, a cytokine, was introduced into the confluent lumen of the channels for about 18 hours to observe the dose dependent inflammation of the endothelial cells in the straight sections of microchannels 44A-44C and venous valve cusps of venous valves 50A-50C.
In this embodiment of the formation of microchannels 44A-44C, to evaluate role of hypoxia, microfluidic chip 40 was incubated at 3.9% oxygen. […]

[2] = test system: human umbilical vein endothelial cells (HUVECs); experiment: Vein-on-a-chip: TNF-α stimulation of HUVEC lumen followed by blood perfusion at venous shear; assay type: cell-based
Procedure: as §1, with “The cell suspension was passed through a cell strainer to remove debris and cell aggregates that were larger than about 40 μm in diameter. In this embodiment, microchannels 44A-44C were then first filled with cell suspension and kept upside down for about 20 minutes to seed the top face of microchannels 44A-44C, and then microchannels 44A-44C were again filled with cell suspension and kept upright for 20 minutes to seed the bottom faces of microchannels 44A-44C.” left out
In this embodiment of the formation of microchannels 44A-44C, to evaluate role of hypoxia, microfluidic chip 40 was incubated at 3.9% oxygen. […] Fluorescently labelled platelets and fibrin were visualized and quantitated via microscopes positioned adjacent microchannels 44A-44C. Additionally, in this embodiment, typical vascular identity and adhesion markers were measured through immunohistochemistry. […]

[3] = standard dosage 50 ng/ml of Apixaban in blood
[4] = standard dosage 100 ng/ml of Rivaroxaban in blood

COc1ccc(-n2nc(C(N)=O)c3c2C(=O)N(c2ccc(N4CCCCC4=O)cc2)CC3)cc1 [Apixaban]
thrombi at cusps 52 and at the microfluidic channel 44B [1]: thrombi detected
fibrin rich clots in cusps 52 [1, 3]: fibrin rich clots were present
thrombi in the luminal portion of the microfluidic model 40 [1, 3]: unobservable thrombi

O=C(NC[C@H]1CN(c2ccc(N3CCOCC3=O)cc2)C(=O)O1)c1ccc(Cl)s1 [Rivaroxaban]
thrombi at cusps 52 and at the microfluidic channel 44B [1]: thrombi detected
fibrin rich clots in cusps 52 [1, 4]: fibrin rich clots were present
thrombi in the luminal portion of the microfluidic model 40 [1, 4]: unobservable thrombi

Heparin
thrombi formation within venous valves 50A-50C ([1]; addition of heparin in blood, dose dependent): decreased the thrombi formation
fibrin in cusps 52 ([1]; higher Heparin dosage 0.50 IU/ml, TNF-α 5 ng/ml): only reduced at the higher Heparin dosage
fibrin within microfluidic model 40 ([1]; lower dose of Heparin (approximately 0.25 IU/ml), TNF-α 5 ng/ml): reduction in fibrin resulted
thrombi formed in microfluidic channels 44A-44C ([1]; when the dosage of Heparin was increased (0.25 to 0.50 IU/ml), valve 50B treated with TNF-α 5 ng/ml, FIG. 38): reduced significantly

TNF-α
thrombi in venous valves upon stimulation of HUVECs ([2]; blood perfused at venous shear of about 0.5 dynes/cm^2, no thrombi with untreated HUVECs): thrombi were detected
clot formation in lumen treated with varying doses of cytokine ([2]; blood perfused at venous shear rates): fibrin rich clots were predominantly formed in the venous valve cusps
